Among the data in patent publication US20140205566A1, “CYCLIC NUCLEUOSIDE DERIVATIVES AND USES THEREOF” (NOVARTIS AG, priority 2012, published 2014) are EC50, CC50 and half-life values, retold here.

The test system of one data set is dengue virus. Nature of the data set: Dengue EC50 determination: PBMC infected with virus/humanized 4G2 antibody complex, plaque reduction assay using BHK cells. Type of data set: cell-based. As to conditions: M.O.I of 1, 48 hours, plaque reduction in BHK cells. The method, then: Cryopreserved PBMC (Peripheral Blood Mononuclear Cell) cells were purchased from AllCells, LLC in USA. The cells were then thawed according to manufacturer's instructions and re-suspended in RPMI medium supplemented with 1% penicillin/streptomycin solution and 10% Fetal Calf serum. The cells were then counted and viability checked (viability should be at least 80%). After centrifuging and removing the media, the cells were diluted to 1×10^7 cells/mL in RPMI medium supplemented with 1% penicillin/streptomycin. 50 μl of the cells were then dispensed into 96-well tissue culture plate resulting in 5×10^5 cells/well. Next, virus with humanized 4G2 mixture was prepared for infection. Briefly, virus (2×10^7 pfu/ml) was mixed with humanized 4G2 antibody with the final antibody concentration of 0.38 μg/ml and incubated for 30 minutes at 4° C. to assist virus/antibody complex formation. The virus-antibody complex was then added to the PBMC at multiplicity of infection (M.O.I) of 1. The mixture of cells, virus and antibody was then further incubated in the plates at 37° C. for an hour in the humidified incubator for virus attachment and infection to take place. Serial diluted compounds were then added to the final media volume of 200 μl with 2% Fetal Calf Serum (final PBMC concentration would be 2.5×10^6 cells/mL). The plates were then incubated at 37° C., 5% CO2 for another 48 hours. The extent of the infection and compound inhibition was measured by plaque reduction assay using BHK cells [RD-2004-80036]. Briefly, supernatants of BHK cells grown in 24-well tissue culture (seeded at 200,000 cells/well the night before) were removed and subjected to 200 μl of diluted supernatants derived from PBMC infection containing serial diluted compounds. After incubating it for 37° C. for 1 hour in the incubator, the supernatants were removed and BHK cells overlaid with RPMI media containing 0.8% methyl-cellulose, 0.5% DMSO, 0.05% sodium bicarbonate, 25 mM HEPES, 2% fetal bovine serum and 1% penicillin/streptomycin solution. After additional 4 days of incubation at 37° C. incubator, the monolayer of BHK cells were fixed with 4% paraformaldehyde, stained with crystal violet and plaques counted. The dose response (n=2) is calculated by Prism from Graphpad software using a mathematical curve fitting analysis called nonlinear regression with four independent parameters. Briefly, the software generates the best fit curve using the formula F(x)=((A−D)/(1+((x/C)̂B)))+D. In this formula, x represents the concentration of the compound, A is the minimum value, B represents the steepness of the curve (sometimes known as Hill slope), C is the inflection point and D is the maximum value. EC50 was estimated as the concentration of the compound which will inhibit 50% of the plaque formation. A positive control (7-deaza-2′-C-acetylene-adenosine) was used to ensure the quality of the data.
(Plaques are areas of infected cells; plaque reduction assays count them against a control.)

The nature of data set [1]: CCK8 cytotoxicity assay in HepG2 cells. As to conditions: human, CCK-8. The data set is classed as cell-based. The method, then:
HepG2 cells were trypsinized, washed, counted and diluted to 1.6×10^4 cells/ml in DMEM-W/O Glucose, supplemented with 10% Fetal bovine serum (FBS), 1% Penicillin/Streptomycin, 2 mM HEPES, 1 mM Sodium Pyruvate, 10 mM Galactose & 2 mM Glutamine. 25 μl of the media containing 400 cells per well were dispensed in clear 384-well tissue culture plate and incubated at room temperature for 30 minutes. The plate was then transferred and placed at 37° C., 5% CO2 humidified incubator overnight. On the next day, serial-diluted compound plates were prepared and 125 nl of compounds at various concentrations were then dispensed into the tissue culture well (200× dilution). The plates were then transferred to 37° C., 5% CO2 humidified incubator for additional 96 hours. Cytotoxicity was measured by CCK-8 assay. Briefly, CCK-8 was thawed on bench top and diluted 2.5× with the growth media. 35 ul of the pre-diluted CCK-8 was then introduced into each well and the plates were then further incubated in 37° C., 5% CO2 humidified incubator for 3 hours. The absorbance was read by Envision at 450 nm. Dose response curves were calculated as in the previous section. The CC50 is estimated as the concentration of the compound which will inhibit 50% of the signal. A positive control (puromycin) was used to ensure the quality of the data.
(Tetrazolium assays rely on reduction of a dye to a coloured formazan, in cell work by metabolically active cells.)

Data set [2] can be described thus: Liver S9 stability determination. Particulars: pooled liver S9 fraction; human liver S9 fraction, 1 μM compound, 37° C., up to 120 mins; read-out: liver S9 t1/2. Type of data set: in vitro ADME. From the text:
The liver is the main organ of metabolism and contains a high concentration of drug metabolizing enzymes. Metabolic clearance, particularly hepatic, is one of the main determinants affecting systemic drug exposure following both oral and i.v. administration. To assess the ability of the compounds of the invention to reach a systemic circulation, the hepatic S9 fraction was chosen to test for stability of the compounds. Hepatic S9 fraction was obtained following centrifugation of homogenized liver tissue at 9,000 g. The hepatic S9 fraction is composed of both microsomal and cytosolic fractions and contains all the enzymes contained in microsomes plus additional phase I and phase II cytosolic enzymes.
Stock solutions of each tested compound (100 μM) were prepared in methanol by two subsequent 1:10 dilutions from 10 mM DMSO drug solutions, the final assay concentration was 1 μM. Frozen pooled liver S9 fraction was thawed from −20° C. and diluted in phosphate buffer (with and without NADPH) which was pre-warmed at 37° C. for 10 minutes. The reaction was initiated by addition of compound. Manual sample plates were incubated on a Thermo Max Q 2000 shaker placed in a temperature controlled Sartorius Certomat H hood set at 37° C. Sequential samples were removed at designated timepoints (0, 5, 15, 30, 60 and 120 mins) and quenched with 4 volumes of ice cold acetonitrile (containing internal standard, diazepam), centrifuged and supernatants reconstituted in water (acetonitrile:water, 50:50% v/v). Samples were then analyzed by LCMS/MS or LC-UV to assess parent depletion. In vitro half-life (t1/2) is calculated based on the rate of disappearance of compound from the reaction mixture at incubation timepoints up to 2 hours.

pEC50: −log10 of the molar value. Bounds are passed on as bounds.

As a reminder, the pEC50 is −log10 of the EC50, conventionally taken in molar units. Lower therefore signals a high EC50. As a reminder, the CC50 is the concentration giving 50% cytotoxicity. A high value points to lower toxicity to the cells. Consider `CCOC(=O)[C@H](C)N[P@@]1(=O)OC[C@H]2O[C@@H](n3cnc4c(OCC)nc(N)nc43)[C@](C)(F)[C@@H]2O1` [Example 1, (S)-ethyl 2-(((2R,4aR,6R,7R,7aR)-6-(2-amino-6-ethoxy-9H-purin-9-yl)-7-fluoro-7-methyl-2-oxidotetrahydro-4H-furo[3,2-d][1,3,2]dioxaphosphinin-2-yl)amino)propanoate], for which the pEC50 in the data set on dengue virus was 6.64. The CC50 at 96 h in data set [1] was > 50000 nM. For the same molecule, in data set [2], the half-life at 1 μM turned out to be 1.27 h.
On to `CCOc1nc(N)nc2c1ncn2[C@@H]1O[C@@H]2CO[P@@](=O)(N[C@@H](C)C(=O)OC(C)C)O[C@H]2[C@@]1(C)F` [Example 2, (S)-isopropyl 2-(((2S,4aR,6R,7R,7aR)-6-(2-amino-6-ethoxy-9H-purin-9-yl)-7-fluoro-7-methyl-2-oxidotetrahydro-4H-furo[3,2-d][1,3,2]dioxaphosphinin-2-yl)amino)propanoate], for which the pEC50 in the data set on dengue virus is 7.14. Also, the cytotoxic concentration (CC50) at 96 h in data set [1] is > 50000 nM. In addition, the half-life at 1 μM in data set [2] was 0.6 h.
The like results for `CCOc1nc(N)nc2c1ncn2[C@@H]1O[C@@H]2CO[P@](=O)(N[C@@H](C)C(=O)OC)O[C@H]2[C@@]1(C)F` [Example 3, (S)-methyl 2-(((2R,4aR,6R,7R,7aR)-6-(2-amino-6-ethoxy-9H-purin-9-yl)-7-fluoro-7-methyl-2-oxidotetrahydro-4H-furo[3,2-d][1,3,2]dioxaphosphinin-2-yl)amino)propanoate] were, in that order, 6.34, > 50000 nM and > 2 h.
The like results for `CCOc1nc(N)nc2c1ncn2[C@@H]1O[C@@H]2CO[P@@](=O)(N[C@H](C)C(=O)OC(C)C)O[C@H]2[C@@]1(C)F` [Example 6, (R)-isopropyl 2-(((2S,4aR,6R,7R,7aR)-6-(2-amino-6-ethoxy-9H-purin-9-yl)-7-fluoro-7-methyl-2-oxidotetrahydro-4H-furo[3,2-d][1,3,2]dioxaphosphinin-2-yl)amino)propanoate] were, in that order, 6.43, > 50000 nM and > 2 h.
